Measured values reported in patent US20210275624A1, “TREATMENTS FOR IMPROVING OR LESSENING IMPAIRMENT OF MITOCHONDRIAL FUNCTION” (priority 2020, published 2021).
Square brackets hold non-standard residues; d marks the D form. Peptide text beside a SMILES is read from it. Cya = N[C@@H](CS(=O)(=O)O)C(=O)O

Assays:
human RPE cells [1] = assay: WST assay (mitochondrial dehydrogenase activity / cell viability); assay type: cell-based; details: 2.5 hours
Procedure: Human donor RPE cells were seeded on collagen-coated 96-well plates, 24-well plates with or without coverslips, 6-well plates (Corning-Costar Incorporated, Corning, N.Y., USA). Except for the Seahorse assay, on day 6 after plating, cells were washed twice with serum-free and phenol red-free MEM (SF-MEM), treated with HQ at a various concentrations in the presence or absence of RSG (0.4 mM) in SF-MEM for various times at 37° C. RSG co-treatment refers to the condition in which cells were treated with RSG in the presence of HQ. Control refers to the condition in which cells were not treated. RPE cells in triplicate wells of a 96-well plate were treated with HQ (150 μM) for 2.5 hours in the presence or absence of RSG (0.4 mM). The medium was removed and cells were incubated with WST-1 solution for 30 minutes at 37° C. A colorimetric assay was performed based on the cleavage of the tetrazolium salt WST-1 by mitochondrial dehydrogenases in viable cells. The plate was read on a spectrophotometer at 440 nm with a reference wavelength at 690 nm.

human RPE cells [2] = assay: F-actin immunofluorescent staining (phalloidin), aggregate quantification; assay type: cell-based; details: 6 hours
Procedure: Human donor RPE cells were seeded on collagen-coated 96-well plates, 24-well plates with or without coverslips, 6-well plates (Corning-Costar Incorporated, Corning, N.Y., USA). Except for the Seahorse assay, on day 6 after plating, cells were washed twice with serum-free and phenol red-free MEM (SF-MEM), treated with HQ at a various concentrations in the presence or absence of RSG (0.4 mM) in SF-MEM for various times at 37° C. RSG co-treatment refers to the condition in which cells were treated with RSG in the presence of HQ. Control refers to the condition in which cells were not treated. RPE cells in triplicate wells of a 24-well plate containing collagen-coated coverslips were treated for 6 hours with HQ (140 μM) in the presence or absence of RSG (0.4 mM) and then fixed in 4% paraformaldehyde for 12 minutes at room temperature (RT). Cells were permeabilized with 0.5% Triton X-100 for 12 minutes and incubated for 1 hour at RT with phalloidin-TRITC in 0.5% bovine serum albumin/0.1% Triton X-100/PBS. The percentage of F-actin aggregates was determined by a masked observer. […] For data analysis, segmented images were converted to eight-bit, binary images and F-actin aggregates were quantified using the particle analyzer function (0-infinity size and 0-1 circularity) in Fiji.

dog heart failure model = assay: Dog heart failure model (coronary microembolization), ventriculographic and hemodynamic measurements; assay type: in vivo; details: for Left Ventricle Ejection Fraction: n = 3, pretreatment 32; for Cardiac Output, Δ vs pretreatment / Left Ventricle Ejection Fraction, Δ vs pretreatment / Stroke Volume, Δ vs pretreatment / Cardiac Output / Mean Pulmonary Artery Wedge Pressure / L V End Diastolic Pressure / Mean Pulmonary Artery Pressure / Stroke Volume / L V End Systolic Volume / L V End Diastolic Volume / Mean Aortic Pressure / Heart Rate / Systemic Vascular Resistance / L V Peak + dP/dt: post 3rd inj.; for Cardiac Output: pretreatment 1.81; for Mean Pulmonary Artery Wedge Pressure: pretreatment 9.3; for L V End Diastolic Pressure: pretreatment 13; for Mean Pulmonary Artery Pressure: pretreatment 17; for Stroke Volume: pretreatment 21; for L V End Systolic Volume: pretreatment 43; for L V End Diastolic Volume: pretreatment 64; for Mean Aortic Pressure: pretreatment 75; for Heart Rate: pretreatment 88; for Systemic Vascular Resistance: pretreatment 3391
Procedure: An initial study was conducted to assess the effects of Risuteganib administered intravenously at doses of 1.0 mg/kg and 5.0 mg/kg in a dog heart failure model. The subject animals underwent coronary microembolization to induce heart failure as described in Sabbah, H., et al.; Chronic Therapy with Elamipretide (MTP-131), a Novel Mitochondria-Targeting Peptide, Improves Left Ventricular and Mitochondrial Function in Dogs with Advanced Heart Failure; Circ Heart Fail. 2016 February; 9(2): e002206. doi:10.1161/CIRCHEARTFAILURE.115.002206.
Three (3) dogs were received 1.0 mg/kg Risuteganib every 2 weeks for 6 weeks. After an intervening period of approximately one week, the same three (3) dogs then received 5.0 mg/kg Risuteganib every 2 weeks for 6 additional weeks. Ventriculographic and hemodynamic measurements were made prior to the first intravenous dose of Risuteganib, after the third biweekly 1.0 mg/kg intravenous dose of Risuteganib and again after the third biweekly 5.0 mg/kg intravenous dose of Risuteganib.

human RPE cells [3] = assay: Determination of ROS (CM-H2DCFDA fluorescence); assay type: cell-based; details: HQ 160 μM vs control
Procedure: Human donor RPE cells were seeded on collagen-coated 96-well plates, 24-well plates with or without coverslips, 6-well plates (Corning-Costar Incorporated, Corning, N.Y., USA). Except for the Seahorse assay, on day 6 after plating, cells were washed twice with serum-free and phenol red-free MEM (SF-MEM), treated with HQ at a various concentrations in the presence or absence of RSG (0.4 mM) in SF-MEM for various times at 37° C. RSG co-treatment refers to the condition in which cells were treated with RSG in the presence of HQ. Control refers to the condition in which cells were not treated. RPE cells in triplicate wells of a 96-well black plates with clear bottoms were washed with SF-MEM, loaded with 20 μM CM-H2DCFDA in SF-MEM for 30 minutes at 37° C. and then washed twice. Cells were then treated with HQ (160 μM) in the presence or absence of RSG (0.4 mM). Fluorescence was measured at various times with a fluorescence plate reader (490 nm excitation, 522 nm emission).

[4] = 1.0 mg/kg IV q 2 weeks for 6 weeks
[5] = 5.0 mg/kg IV q 2 weeks for 6 weeks

C[C@@H](O)[C@H](NC(=O)[C@H](CS(=O)(=O)O)NC(=O)CNC(=O)[C@H](CCCNC(=N)N)NC(=O)CN)C(=O)N1CCC[C@H]1C(=O)O [Risuteganib, Glycyl-L-arginylglycyl-3-sulfo-L-alanyl-L-threonyl-L-proline] (H-GRG[Cya]TP-OH)
cell viability (WST-1, mitochondrial dehydrogenase activity) (human RPE cells [1]; RSG 0.4 mM co-treatment with HQ 150 μM, vs HQ alone): significantly increased cell viability
F-actin aggregates (human RPE cells [2]; RSG 0.4 mM co-treatment with HQ 140 μM): significantly inhibited the production of HQ-induced aggregates
Left Ventricle Ejection Fraction (dog heart failure model; 1.0 mg/kg IV q 2 weeks for 6 weeks, post 3rd 1.0 mg/kg IV inj.): 37%
Cardiac Output, Δ vs pretreatment (dog heart failure model; [4]): Δ = +0.14 L/min
Left Ventricle Ejection Fraction, Δ vs pretreatment (dog heart failure model; [4]): Δ = +5%
Stroke Volume, Δ vs pretreatment (dog heart failure model; [4]): Δ = +2 mL
Cardiac Output (dog heart failure model; [4]): 1.95 L/min
Mean Pulmonary Artery Wedge Pressure (dog heart failure model; [4]): 9.0 mmHg
L V End Diastolic Pressure (dog heart failure model; [4]): 13 mmHg
Mean Pulmonary Artery Pressure (dog heart failure model; [4]): 16 mmHg
Stroke Volume (dog heart failure model; [4]): 23 mL
L V End Systolic Volume (dog heart failure model; [4]): 0.04 L
L V End Diastolic Volume (dog heart failure model; [4]): 0.063 L
Mean Aortic Pressure (dog heart failure model; [4]): 71 mmHg
Heart Rate (dog heart failure model; [4]): 86 beats/min
Systemic Vascular Resistance (dog heart failure model; [4]): 2954 dynes-sec-cm-5
Left Ventricle Ejection Fraction (dog heart failure model; 5.0 mg/kg IV q 2 weeks for 6 weeks, post 3rd 5.0 mg/kg IV inj.): 41%
Cardiac Output, Δ vs pretreatment (dog heart failure model; [5]): Δ = +0.57 L/min
Left Ventricle Ejection Fraction, Δ vs pretreatment (dog heart failure model; [5]): Δ = +9%
Stroke Volume, Δ vs pretreatment (dog heart failure model; [5]): Δ = +5 mL
Cardiac Output (dog heart failure model; [5]): 2.38 L/min
Mean Pulmonary Artery Wedge Pressure (dog heart failure model; [5]): 9.0 mmHg
L V End Diastolic Pressure (dog heart failure model; [5]): 13 mmHg
Mean Pulmonary Artery Pressure (dog heart failure model; [5]): 16 mmHg
Stroke Volume (dog heart failure model; [5]): 27 mL
L V End Systolic Volume (dog heart failure model; [5]): 0.039 L
L V End Diastolic Volume (dog heart failure model; [5]): 0.067 L
Mean Aortic Pressure (dog heart failure model; [5]): 84 mmHg
Heart Rate (dog heart failure model; [5]): 87 beats/min
Systemic Vascular Resistance (dog heart failure model; [5]): 2924 dynes-sec-cm-5
L V Peak + dP/dt (dog heart failure model; first line so headed (r26), 1.0 mg/kg IV q 2 weeks for 6 weeks, pretreatment 1241): 1267 mmHg/sec
L V Peak + dP/dt (dog heart failure model; first line so headed (r26), 5.0 mg/kg IV q 2 weeks for 6 weeks, pretreatment 1241): 1288 mmHg/sec
cardiac function (dog heart failure model; heart failure dogs, 1.0 mg/kg and 5.0 mg/kg intravenously): improved
L V Peak + dP/dt (dog heart failure model; second line so headed (r29), 1.0 mg/kg IV q 2 weeks for 6 weeks, pretreatment 1509): 1325 mmHg/sec
L V Peak + dP/dt (dog heart failure model; second line so headed (r29), 5.0 mg/kg IV q 2 weeks for 6 weeks, pretreatment 1509): 1338 mmHg/sec

Oc1ccc(O)cc1 [HQ, hydroquinone, reference compound]
cell viability (WST-1) (human RPE cells [1]; HQ 150 μM): significantly decreased cell viability
ROS production (human RPE cells [3]): significantly increased
number of F-actin aggregates (human RPE cells [2]; HQ 140 μM, vs control): significantly increased the number of F-actin aggregates
